In US9187472B2 (AbbVie Inc., priority 2012, dated 2015) one finds IC50 data, which are given here for 32 compounds.

As a reminder, the IC50 is the concentration at which inhibition is half-maximal. A low value points to greater potency.

The subject of the first test is PC3 cells. The experiment in a line: NAMPT Cell Proliferation Assay. It is filed as cell-based. The settings on record: 5 days incubation, cell viability by Cell Titer Glo. In a few lines: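 IC50 values derive from sigmoidal dose-response fits of percent inhibition of PC3 viability, measured by luminescence after 5 days of compound treatment. Cells (500/well, RPMI containing 10% heat-inactivated FBS) are allowed to attach overnight, and compounds are tested at 10-fold dilutions between 10 μM and 1×10^−5 μM.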
With `Cc1nc(C(=O)N2CCC(c3ccc(C(=O)NCc4ccn5ccnc5c4)cc3)CC2)c2n1CCCC2` [Example 1099, Example 1099 N-(imidazo[1,2-a]pyridin-7-ylmethyl)-4-{1-[(3-meth-5,6,7,8-tetrahydroimidazo[1,5-a]pyridin-1-yl)carbonyl]piperidin-4-yl}benzamide], the IC50 is 15.6 nM.

Staying with this test, now noted: Homo sapiens, PC-3, 120 h, 5 days incubation, cell viability by Cell Titer Glo.
Regarding `CC(C)(CN1CCNCC1)Cn1cc(-c2ccc(C(=O)NCc3ccn4ccnc4c3)s2)cn1` [Example 1082, 5-{1-[2,2-dimethyl-3-(piperazin-1-yl)propyl]-1H-pyrazol-4-yl}-N-(imidazo[1,2-a]pyridin-7-ylmethyl)thiophene-2-carboxamide], half-maximal inhibition (IC50) required 2.18 nM. Still for that read-out and setting: next, `CC(C)(CN)Cn1cc(-c2ccc(C(=O)NCc3ccn4ccnc4c3)s2)cn1` [Example 1083, 5-[1-(3-amino-2,2-dimethylpropyl)-1H-pyrazol-4-yl]-N-(imidazo[1,2-a]pyridin-7-ylmethyl)thiophene-2-carboxamide]: 0.92 nM. On the same count and under the same terms, with `O=C(NCc1ccn2ccnc2c1)c1ccc(C2CCN(C(=O)c3cnc(C4CC4)s3)CC2)cc1` [Example 1084, 4-{1-[(2-cyclopropyl-1,3-thiazol-5-yl)carbonyl]piperidin-4-yl}-N-(imidazo[1,2-a]pyridin-7-ylmethyl)benzamide] the figure was 14.8 nM; with `O=C(NCc1ccn2ccnc2c1)c1ccc(C2CCN(C(=O)c3ccc4scnc4c3)CC2)cc1` [Example 1085, 4-[1-(1,3-benzothiazol-5-ylcarbonyl)piperidin-4-yl]-N-(imidazo[1,2-a]pyridin-7-ylmethyl)benzamide], 25.6 nM. The same measure, in the same setting: next, `Cn1ncc2ccc(C(=O)N3CCC(c4ccc(C(=O)NCc5ccn6ccnc6c5)cc4)CC3)cc21` [Example 1086, N-(imidazo[1,2-a]pyridin-7-ylmethyl)-4-{1-[(1-methyl-1H-indazol-6-yl)carbonyl]piperidin-4-yl}benzamide]: 9.93 nM; `Cc1nn(C)c(C(=O)N2CCC(c3ccc(C(=O)NCc4ccn5ccnc5c4)cc3)CC2)c1Cl` [Example 1087, 4-{1-[(4-chloro-1,3-dimethyl-1H-pyrazol-5-yl)carbonyl]piperidin-4-yl}-N-(imidazo[1,2-a]pyridin-7-ylmethyl)benzamide]: 1.68 nM. As to `CCc1ccc(C(=O)N2CCC(c3ccc(C(=O)NCc4ccn5ccnc5c4)cc3)CC2)nc1` [Example 1088, 4-{1-[(5-ethylpyridin-2-yl)carbonyl]piperidin-4-yl}-N-(imidazo[1,2-a]pyridin-7-ylmethyl)benzamide], the 50% inhibitory concentration (IC50) was 34.4 nM.

`N#Cc1cnc(C(=O)N2CCC(c3ccc(C(=O)NCc4ccn5ccnc5c4)cc3)CC2)c(Cl)c1` [Example 1089, 4-{1-[(3-chloro-5-cyanopyridin-2-yl)carbonyl]piperidin-4-yl}-N-(imidazo[1,2-a]pyridin-7-ylmethyl)benzamide] registered an IC50 of 8.27 nM. The same measure, in the same setting: with `CC1CC(C#N)(C(=O)N2CCC(c3ccc(C(=O)NCc4ccn5ccnc5c4)cc3)CC2)C1` (centres unmarked) [Example 1090, 4-{1-[(1-cyano-3-methylcyclobutyl)carbonyl]piperidin-4-yl}-N-(imidazo[1,2-a]pyridin-7-ylmethyl)benzamide] the figure was 5.42 nM; with `CCc1c(C(=O)N2CCC(c3ccc(C(=O)NCc4ccn5ccnc5c4)cc3)CC2)nnn1CC` [Example 1091, 4-{1-[(1,5-diethyl-1H-1,2,3-triazol-4-yl)carbonyl]piperidin-4-yl}-N-(imidazo[1,2-a]pyridin-7-ylmethyl)benzamide], 4.19 nM; with `COc1csc(C(=O)N2CCC(c3ccc(C(=O)NCc4ccn5ccnc5c4)cc3)CC2)c1` [Example 1092, N-(imidazo[1,2-a]pyridin-7-ylmethyl)-4-{1-[(4-methoxythiophen-2-yl)carbonyl]piperidin-4-yl}benzamide], 17.7 nM. In the case of `N#Cc1ccc(C(=O)N2CCC(c3ccc(C(=O)NCc4ccn5ccnc5c4)cc3)CC2)s1` [Example 1093, 4-{1-[(5-cyanothiophen-2-yl)carbonyl]piperidin-4-yl}-N-(imidazo[1,2-a]pyridin-7-ylmethyl)benzamide], half-maximal inhibition (IC50) was put at 565 nM. For `O=C(NCc1ccn2ccnc2c1)c1ccc(C2CCN(C(=O)c3ccc(C4CC4)cn3)CC2)cc1` [Example 1094, 4-{1-[(5-cyclopropylpyridin-2-yl)carbonyl]piperidin-4-yl}-N-(imidazo[1,2-a]pyridin-7-ylmethyl)benzamide], the IC50 was found to be 68.8 nM.

`N#Cc1cc(F)c(C(=O)N2CCC(c3ccc(C(=O)NCc4ccn5ccnc5c4)cc3)CC2)c(F)c1` [Example 1095, 4-[1-(4-cyano-2,6-difluorobenzoyl)piperidin-4-yl]-N-(imidazo[1,2-a]pyridin-7-ylmethyl)benzamide]: it took 4.45 nM to reach half-maximal inhibition (IC50). The same measure, in the same setting: next, `CCn1cc(C(=O)N2CCC(c3ccc(C(=O)NCc4ccn5ccnc5c4)cc3)CC2)c(C(C)C)n1` [Example 1096, 4-(1-{[1-ethyl-3-(propan-2-yl)-1H-pyrazol-4-yl]carbonyl}piperidin-4-yl)-N-(imidazo[1,2-a]pyridin-7-ylmethyl)benzamide]: 2.07 nM; `CC(C)n1ccc(CC(=O)N2CCC(c3ccc(C(=O)NCc4ccn5ccnc5c4)cc3)CC2)n1` [Example 1097, N-(imidazo[1,2-a]pyridin-7-ylmethyl)-4-(1-{[1-(propan-2-yl)-1H-pyrazol-3-yl]acetyl}piperidin-4-yl)benzamide]: 64.7 nM; `O=C(NCc1ccn2ccnc2c1)c1ccc(C2CCN(C(=O)c3coc4ccccc34)CC2)cc1` [Example 1098, 4-[1-(1-benzofuran-3-ylcarbonyl)piperidin-4-yl]-N-(imidazo[1,2-a]pyridin-7-ylmethyl)benzamide]: 9.55 nM. Still for that read-out and setting: next, `COc1cc(C(=O)N2CCC(c3ccc(C(=O)NCc4ccn5ccnc5c4)cc3)CC2)ncc1C` [Example 1100, N-(imidazo[1,2-a]pyridin-7-ylmethyl)-4-{1-[(4-methoxy-5-methylpyridin-2-yl)carbonyl]piperidin-4-yl}benzamide]: 8.7 nM. Still for that read-out and setting: with `O=C(NCc1ccn2ccnc2c1)c1ccc(C2CCN(C(=O)c3ccnn3C3CCCC3)CC2)cc1` [Example 1101, 4-{1-[(1-cyclopentyl-1H-pyrazol-5-yl)carbonyl]piperidin-4-yl}-N-(imidazo[1,2-a]pyridin-7-ylmethyl)benzamide] the figure was 2.06 nM; with `O=C(NCc1ccn2ccnc2c1)c1ccc(C2CCN(C(=O)c3scnc3Cl)CC2)cc1` [Example 1102, 4-{1-[(4-chloro-1,3-thiazol-5-yl)carbonyl]piperidin-4-yl}-N-(imidazo[1,2-a]pyridin-7-ylmethyl)benzamide], 1.77 nM; with `N#Cc1ccsc1C(=O)N1CCC(c2ccc(C(=O)NCc3ccn4ccnc4c3)cc2)CC1` [Example 1103, 4-{1-[(3-cyanothiophen-2-yl)carbonyl]piperidin-4-yl}-N-(imidazo[1,2-a]pyridin-7-ylmethyl)benzamide], 4.24 nM. As for `CC(C)c1ncncc1C(=O)N1CCC(c2ccc(C(=O)NCc3ccn4ccnc4c3)cc2)CC1` [Example 1104, N-(imidazo[1,2-a]pyridin-7-ylmethyl)-4-(1-{[4-(propan-2-yl)pyrimidin-5-yl]carbonyl}piperidin-4-yl)benzamide], 6.96 nM corresponded to half-maximal inhibition (IC50).

`CCCc1c(C(=O)N2CCC(c3ccc(C(=O)NCc4ccn5ccnc5c4)cc3)CC2)cnn1C` [Example 1105, N-(imidazo[1,2-a]pyridin-7-ylmethyl)-4-{1-[(1-methyl-5-propyl-1H-pyrazol-4-yl)carbonyl]piperidin-4-yl}benzamide]: 2.6 nM corresponded to half-maximal inhibition (IC50). On the same count and under the same terms, next, `CC(C(=O)N1CCC(c2ccc(C(=O)NCc3ccn4ccnc4c3)cc2)CC1)n1ccc(C2CC2)n1` (centres unmarked) [Example 1106, 4-{1-[2-(3-cyclopropyl-1H-pyrazol-1-yl)propanoyl]piperidin-4-yl}-N-(imidazo[1,2-a]pyridin-7-ylmethyl)benzamide]: 27.5 nM; `CC1Cc2cccc(C(=O)N3CCC(c4ccc(C(=O)NCc5ccn6ccnc6c5)cc4)CC3)c2O1` (centres unmarked) [Example 1107, N-(imidazo[1,2-a]pyridin-7-ylmethyl)-4-{1-[(2-methyl-2,3-dihydro-1-benzofuran-7-yl)carbonyl]piperidin-4-yl}benzamide]: 2.26 nM; `CC(C)c1nc(C(=O)N2CCC(c3ccc(C(=O)NCc4ccn5ccnc5c4)cc3)CC2)cs1` [Example 1108, N-(imidazo[1,2-a]pyridin-7-ylmethyl)-4-(1-{[2-(propan-2-yl)-1,3-thiazol-4-yl]carbonyl}piperidin-4-yl)benzamide]: 20.1 nM.

In turn, `Cc1cc(C(=O)N2CCC(c3ccc(C(=O)NCc4ccn5ccnc5c4)cc3)CC2)nn1C(F)F` [Example 1109, 4-(1-{[1-(difluoromethyl)-5-methyl-1H-pyrazol-3-yl]carbonyl}piperidin-4-yl)-N-(imidazo[1,2-a]pyridin-7-ylmethyl)benzamide] showed an IC50 of 9.21 nM.

In turn, `N#Cc1csc(C(=O)N2CCC(c3ccc(C(=O)NCc4ccn5ccnc5c4)cc3)CC2)c1` [Example 1110, 4-{1-[(4-cyanothiophen-2-yl)carbonyl]piperidin-4-yl}-N-(imidazo[1,2-a]pyridin-7-ylmethyl)benzamide] had an IC50 of 111 nM. The same measure, in the same setting: next, `O=C(NCc1ccn2ccnc2c1)c1ccc(C2CCN(C(=O)c3cc4ccccn4n3)CC2)cc1` [Example 1111, N-(imidazo[1,2-a]pyridin-7-ylmethyl)-4-[1-(pyrazolo[1,5-a]pyridin-2-ylcarbonyl)piperidin-4-yl]benzamide]: 62 nM; `O=C(NCc1ccn2ccnc2c1)c1ccc(C2CCN(C(=O)c3ccc4occc4c3)CC2)cc1` [Example 1112, 4-[1-(1-benzofuran-5-ylcarbonyl)piperidin-4-yl]-N-(imidazo[1,2-a]pyridin-7-ylmethyl)benzamide]: 16.4 nM.

With `CC(C)c1nc(C(=O)N2CCC(c3ccc(C(=O)NCc4ccn5ccnc5c4)cc3)CC2)co1` [Example 1113, N-(imidazo[1,2-a]pyridin-7-ylmethyl)-4-(1-{[2-(propan-2-yl)-1,3-oxazol-4-yl]carbonyl}piperidin-4-yl)benzamide], the IC50 came to 23.1 nM.
